Data on one sequence can be found in patent US11426441B2, “Composition comprising protein phosphatase 1 inhibitory peptide for treating vascular diseases” (BethphaGen Inc., priority 2016, dated 2022).

No end group written: not given here.

Assay [1] has as its system SERCA2a. Put plainly: Aorta ex vivo organ culture, SERCA2a western blotting. The assay is classed as cell-based. The following applies: ex vivo culture of rat thoracic aorta, injury by scratching. The procedure:
A rat thoracic aorta was harvested and incubated in RPMI-1640 medium containing 20 mM HEPES, 2 mM L-glutamine, 100 IU/mL penicillin, and 100 μg/mL streptomycin. The adventitia was removed, and the aorta was cut longitudinally and fixed onto a resin. To investigate the degradation of SERCA2a, tissue fragments were cultured for 7-10 days in RPMI-1640 medium containing 20% (v/v) FCS. The medium was replaced every 48 hours.
Vascular smooth muscle cells (VSMCs) were homogenized in a minimal volume of 50 mM Tris-HCl, pH 7.4, supplemented with a broad-spectrum protease inhibitor cocktail (Calbiochem). The proteins were separated by SDS-PAGE and then transferred to polyvinylidene fluoride membranes (Schleicher & Schuell). After blocking with 5% (w/v) non-fat milk for 1 hour and washing with TBST, the membranes were incubated with antibodies against SERCA2a, SERCA2b (21st century biochemical), PCNA (abcam), GAPDH (Sigma-Aldrich), phospho-eNOS, eNOS, phospho-eIF2α, eIF2α (cell signaling), Vimentin, α-SMA, BMPR2 (Santa cruz), phospho-Akt, Akt (cell signaling), phospho-phospholamban (Merck), and Phospholamban (cell signaling). The membranes were then incubated with horseradish peroxidase-conjugated secondary antibodies (Jackson ImmunoResearch, West Grove, Pa., USA) and developed using a chemiluminescent substrate (Dogen). The blots were scanned and quantified using LAS software.
Background: In western blotting, separated proteins are transferred to a membrane and probed.

For assay [2], the system named is interaction of PP1 and Akt. Put plainly: PP1 immunoprecipitation of pulmonary tissue lysate. The assay is classed as binding. The following applies: ψPLB-SE added upon the precipitation. The procedure: FIGS. 16a, 16b and 16c. (16a-16b) PAECs were treated with 3 μM ψPLB-SE for 1 hour, and protein expression was quantitatively analyzed through western blotting using antibodies against Phospho-eNOS (ser1177), total eNOS, phospho-Akt (Ser473, Thr308), total Akt, and GAPDH. (16c) The pulmonary tissue lysate was subjected to immunoprecipitation using PP1 antibody to investigate the interactions of PP1 with eNOS and Akt depending on the presence or absence of the treatment with ψPLB-SE using respective antibodies therefor.
In order to intensively investigate the interactions of PP1 with eNOS and Akt, the pulmonary tissue lysate was subjected to immunoprecipitation using an antibody against PP1, and the effects of ψPLB-SE on the interactions were investigated by adding ψPLB-SE upon the precipitation. […] The activation of eNOS through the inhibition of the interaction between PP1 and Akt was supplemented through the experiments on the inhibition of the high-order kinase of Akt. The phosphorylation increases of Akt and eNOS due to the inhibition of dephosphorylation were investigated by offsetting the phosphorylation conditions of Akt through the treatment with LY294002, which is an inhibitor of phosphoinositide-3-kinase (PI3K), a known high-order kinase of Akt, at a concentration of 50 μM, followed by ψPLB-SE treatment. […]

Assay [3] concerns balloon-injured rat carotid arteries. Description: Balloon-induced injury of rat carotid artery. The format is in vivo. An excerpt: The left common carotid artery was injured by an infiltration of 2F Fogarty balloon embolectomy catheter. In brief, the rats were anesthetized with isoflurane gas (70% N2O/30% O2), the left external carotid artery was exposed, and branches thereof were electro-coagulated. A catheter was inserted approximately 1 cm into the external carotid artery via a transverse arteriotomy, and endothelial denudation was achieved by three passes of the catheter along the common carotid artery. After removal of the catheter, the penetrated area was clamped, and 5 μg of the peptides solubilized in 200 μL of phosphate-buffered saline (PBS) was injected. After incubation for 15 minutes, the sealed carotid artery was re-opened to resume blood flow. The rats were allowed to recover for 10 days, unless otherwise stated. For histological analyses, the rats were anesthetized, and the common carotid artery was excised after transcardiac perfusion with heparinized saline containing 3.7% (w/v) formaldehyde. The specimens were embedded in paraffin, and paraffin blocks were sectioned with the Leica RM2255 rotary microtome. Two serial tissue sections (thickness, 4 μm) were obtained from the centre of the common carotid artery and stained with haematoxylin and eosin. The lamina, internal elastic lamina, and external elastic lamina were measured with the National Institutes of Health ImageJ software (version 1.62). The intimal and medial areas were determined by subtracting the laminal area from the internal elastic laminal area and by subtracting the internal elastic laminal area from the external elastic laminal area, respectively. The values from two serial sections per rat were averaged for analysis.
The carotid artery was fixed in 4% (w/v) paraformaldehyde for 48 hours at room temperature and then washed with PBS. After embedding the specimens in paraffin and sectioning the tissue blocks, the sections were treated with hydrogen peroxide to quench endogenous peroxidase activity, followed by boiling in antigen retrieval buffer. […]

Assay [4] relates to SERCA2a. The following applies: in vitro and ex vivo; Oh J G et al. (2013); cited from earlier work.

Take “RAETIEMPQ (not fully specified) [ψPLB-SE, 9-mer PP1 decoy peptide mimicking phosphorylated PLB; conjugated via GGG linker to cell penetrating peptide dNP2 or TAT]”: the “injury-dependent reduction of SERCA2a in VSMCs” value in assay [1] is reported as “completely inhibited”. In addition, in assay [2], the “interaction of Akt with PP1 (immunoprecipitation)” value is given as “attenuated”. In assay [3] (balloon-injured rat carotid artery, peptide administered to the injured site), the “in vivo VSMC proliferation (α-SMA, PCNA immunostaining)” value is “inhibits”. Also, the “neointimal formation (haematoxylin and eosin staining)” value in assay [3] (balloon-injured rat carotid artery, peptide administered to the injured site, compared with control peptide) was “inhibited”. For the same sequence, the “reduction of SERCA2a level by balloon angioplasty-mediated injury (immunostaining)” value in assay [3] (carotid artery sections) is listed as “inhibited”. In addition, the “SERCA2a activity in the heart after ischemia/reperfusion” value in assay [4] was “restored”.
